Data taken from patent US20220184000A1, “USE OF CANNABIDIOL IN THE TREATMENT OF DRAVET SYNDROME” (priority 2019, published 2022).

Key:
Type in all cases: in vivo
Scn1a^+/− mice [1] = assay: Eight-arm radial arm maze (RAM) test, cognition, Study II; details: CBD 100 mg/kg s.c. twice daily
Procedure: (§1) Here, Scn1a^+/− were randomly divided into two groups and subcutaneously injected with either CBD (100 mg/kg twice daily; n=12) or its vehicle (ethanol:Kolliphor®:0.9% saline=2:1:17; n=29) from P8 onwards until P52 or death (whichever was earlier).
A radial arm maze (RAM) consisting of eight arms (each arm 60×10 cm; raised at 50 cm above the floor) was used to assess the reference memory (RM) and working memory (WM) of the animals. On four consecutive days, animals were given two 10-minute sessions of habituation to the test apparatus and rules of the test, separated by a 90 min interval. During the first two days of habituation, food rewards (¼ Cheerios®, Nestle) were randomly scattered on the floor of the apparatus covering all arms and food-troughs at the end of each arm. On the 3rd and 4th habituation day, food rewards were placed only in food troughs of four randomly selected arms (fixed for each animal during the habituation and test day). Food was withdrawn 4-6 hours before the trial (both during habituation and test days) to motivate the animals to locate the rewards and thus perform the task. On the test day two trials of 10 min were conducted at 90 min interval and the activity of the animals were video recorded for offline blinded coding after the end of experiment. Entry to a non-baited arm was considered as a reference memory error (RME), whereas re-entry to a previously baited arm from which the food was already taken is considered as a working memory error (WME). The mean WME or RME were calculated from the two test trials.
In Study II, the data were analysed in GraphPad Prism 6 software. Survival curves of Scn1a^+/− vehicle-treated and Scn1a^+/− CBD-treated group were compared using a Mantel-Cox test. The percentage of animals from the Scn1a^+/− vehicle-treated and Scn1a^+/− CBD-treated groups that survived until the end of the study (P52) were compared by Fisher's exact test. Further, data obtained from the comorbidity assessment were checked for normality by D'Agostino & Pearson omnibus normality test. Data obtained from rotarod, gait, social interaction (active interaction), EPM, sucrose preference, RAM (RME) tests were normally distributed and the differences between the three groups were analysed by one-way ANOVA. If a significant difference was found then Holm-Sidak post-hoc test was conducted among the groups. […] Upon observing a significant difference, the Dunn's post-hoc test was employed to compare the groups. Multiple comparisons were corrected in all cases. Parametric data are presented in scattered dot plot in the figures and are expressed as mean±SEM. Non-parametric data are presented in box plot in the figures and are expressed as median, min to max, and interquartile range (IQR). […]

Scn1a^+/− mice [2] = assay: Accelerated rotarod test (motor function), Study II
Procedure: as §1
Fine motor control in animals were assessed by the accelerated rotarod and static beam tests. Animals were habituated to the stationary rotarod for 2 min a day for 2 days. In the accelerated rotarod test each mouse was placed individually on a linearly accelerating rod (4-40 rpm over 5 minutes; LE8500, Letica Scientific Instruments, UK) and average latency to fall from the rod (maximum 300 seconds) was calculated from 3 consecutive trials (2 min interval between trials).
(§2) In Study II, the data were analysed in GraphPad Prism 6 software. Survival curves of Scn1a^+/− vehicle-treated and Scn1a^+/− CBD-treated group were compared using a Mantel-Cox test. […] Data obtained from rotarod, gait, social interaction (active interaction), EPM, sucrose preference, RAM (RME) tests were normally distributed and the differences between the three groups were analysed by one-way ANOVA. […] Parametric data are presented in scattered dot plot in the figures and are expressed as mean±SEM. Non-parametric data are presented in box plot in the figures and are expressed as median, min to max, and interquartile range (IQR). […]

Scn1a^+/− mice [3] = assay: Social interaction test, Study II; details: CBD 100 mg/kg s.c. twice daily
Procedure: as §1
The social interaction test was conducted in the home cage of test mouse to assess the social behaviour of the animals (Sato, Mizuguchi, & Ikeda, 2013). On test day, cage mate(s) were removed from the home cage of the test mouse and the mouse remained in isolation for 15 minutes. A novel wild type mouse of same strain, same sex and similar weight to the test mouse was then introduced to the home cage of the test mouse. Activity was video recorded (Sony DCR-SX21E) for 10 minutes and the obtained video files were blinded at the end of all experiments. Time spent in active interactions (e.g. close following, sniffing, allogrooming/social grooming and mounting) and number of rearing (lifting the front paws on the air) occasions were coded offline using Observer XT 12 (Noldus, Netherlands). Aggressive behaviours were not considered as social interactions and were not coded. In this test, a reduced social interaction is considered as autistic-like behaviour (Sato et al., 2013), while increased rearing occasions is sign of defensive escapes (Kaplan et al., 2017).
as §2

Scn1a^+/− mice [4] = assay: Survival / premature mortality in Scn1a^+/− mice, Study II (chronic model of Dravet syndrome)
Procedure: The animals were group housed throughout Study II except for 3 days during sucrose preference test when each animal was individually housed. This experiment was conducted in dark cycle (dim red light, 8:00-20:00 h). Male 129S-Scn1^atm1Kea/Mmjax heterozygote mice (Jackson Laboratory, USA) were bred with female wild type C57BL/6 mice (Charles River, UK) to obtain Scn1a^+/− and wild type (WT) littermate mice used in this study. At the end of the study, animals were humanely killed by cervical dislocation. […]
As seizure-related deaths in this model were unpredictable, animals were video monitored continuously (24 h×7 days) throughout the study and any mortality observed was cross checked with the available video footage to confirm the reason of death.
as §2, with “software.” for “software. Survival curves of Scn1a^+/− vehicle-treated and Scn1a^+/− CBD-treated group were compared using a Mantel-Cox test.”

Scn1a^+/− mice [5] = assay: Sucrose preference test, depression-like behaviour, Study II; details: CBD 100 mg/kg s.c. twice daily
Procedure: as §1
The sucrose preference test was carried out to assess the depression-like behaviour (Serova, Mulhall, & Sabban, 2017). The animals were separately housed during this test. Here, 24 hours before the test, animals were trained to drink from two bottles each containing 2% sucrose. On the first day of test, the animals were provided with a pre-weighed bottle of 2% sucrose and another containing a pre-weighed volume of tap water. The positions of the bottles were swapped after 24 hours to avoid any side preferences. After 48 hours, both bottles were weighed, and sucrose preference was calculated by using the following formula: […]
as §2, with “software.” for “software. Survival curves of Scn1a^+/− vehicle-treated and Scn1a^+/− CBD-treated group were compared using a Mantel-Cox test.”

Compound: C=C(C)[C@@H]1CCC(C)=C[C@H]1c1c(O)cc(CCCCC)cc1O [CBD, cannabidiol]
- reference memory errors (RME), Scn1a^+/− CBD-treated versus WT vehicle-treated (Scn1a^+/− mice [1]; p=0.65): No difference
- working memory errors (WME), Scn1a^+/− CBD-treated versus WT vehicle-treated (Scn1a^+/− mice [1]; p>0.9999): not differed
- reference memory errors (RME), Scn1a^+/− vehicle-treated compared to Scn1a^+/− CBD-treated (Scn1a^+/− mice [1]; statement describes vehicle group relative to CBD group (n=10), p<0.0001, FIG. 4E): significantly more RME
- working memory errors (WME), Scn1a^+/− vehicle-treated compared to Scn1a^+/− CBD-treated (Scn1a^+/− mice [1]; statement describes vehicle group relative to CBD group, p=0.001, FIG. 4F): significantly more WME
- time spent on rod, accelerating rotarod, between the groups (Scn1a^+/− mice [2]; WT vehicle, Scn1a^+/− vehicle, Scn1a^+/− CBD (100 mg/kg s.c. twice daily), p=0.44, FIG. 3A): no significant difference
- effects on motor function (conclusion) (Scn1a^+/− mice [2]; conclusion from rotarod and static beam tests in Scn1a^+/− mice, chronic CBD 100 mg/kg s.c. twice daily): no detrimental effects on motor function
- rearing events, Scn1a^+/− CBD-treated versus WT vehicle-treated (Scn1a^+/− mice [3]; p=0.55): No difference
- time spent on active interaction, Scn1a^+/− vehicle-treated compared to Scn1a^+/− CBD-treated (Scn1a^+/− mice [3]; statement describes vehicle group relative to CBD group (n=10), p=0.0003, FIG. 4A): significantly less time
- number of rearing occasions, Scn1a^+/− vehicle-treated compared to Scn1a^+/− CBD-treated (Scn1a^+/− mice [3]; statement describes vehicle group relative to CBD group, p=0.0003, FIG. 4B): significantly higher number of rearing occasions
- survival curve, Scn1a^+/− vehicle-treated versus CBD-treated (Scn1a^+/− mice [4]; CBD 100 mg/kg s.c. twice daily from P8 until P52 or death, n=12 CBD, n=29 vehicle, Mantel-Cox p=0.04, FIG. 2A): Survival was significantly less in Scn1a^+/− vehicle-treated group
- animals that died before the completion of the study (P52) (Scn1a^+/− mice [4]; Scn1a^+/− CBD-treated, 2 of 12, CBD 100 mg/kg s.c. twice daily from P8, vehicle approximately 66% (19 of 29), p<0.0001, FIG. 2B): 17%
- sucrose preference, Scn1a^+/− CBD-treated versus WT vehicle-treated (Scn1a^+/− mice [5]; p=0.36): similar
- sucrose preference, Scn1a^+/− vehicle-treated compared to Scn1a^+/− CBD-treated (Scn1a^+/− mice [5]; statement describes vehicle group relative to CBD group (n=10), p=0.01, FIG. 4D): reduced preference for sucrose
